These results are taken from patent publication US11826317B2, “Combination therapy with notch and PD-1 or PD-L1 inhibitors” (Eli Lilly and Company, priority 2016, dated 2023).

One experiment relates to CT26 cells. The experiment can be described thus: CT26 colorectal tumor growth in BALB/C mice (in-vivo study). The settings on record: CT26 s.c. in BALB/C mice. The method, then:
For in-vivo studies 1×10^6 CT26 cells (ATCC® CRL2639™) a colorectal cancer cell line, in 0.2 mL Hank's Balanced Salt Solution (HBSS) is implanted by subcutaneous injection in the hind leg of 6-8 weeks of age BALB/C female mice (Harlan Laboratories). Mice are fed ad libitum on normal chow. Treatment is initiated on day 6 of tumor implantation with oral administration (gavage) of Compound A in 1% Sodium carboxymethyl cellulose (Na-CMC) in 0.25% Tween® 80, or intraperitoneal injection of mouse anti PD-L1 antibody (10F.9G2, BioXcell Catalogue #: BE0101) in phosphate buffered saline (PBS) or intraperitoneal injection of mouse anti PD-1 (CD279) antibody (Clone: RMP1-14, BioXCell #: BP0146-R) in PBS or their respective vehicle in 0.2 mL volume. Compound A is administered at 8 mg/kg on a Monday, Wednesday and Friday schedule for 2 weeks and 10F.9G2 and RMP1-14 are administered at 250 μg/dose/animal on Monday and Thursday schedule for 2 weeks.
Tumor growth and body weight are monitored over time to evaluate efficacy and signs of toxicity. Bidimensional measurements of tumors are performed twice a week and tumor volumes are calculated based on the following formula: (Tumor Volume)=[(L)×(W2)×(Π/6)] where L is mid-axis length and W is mid-axis width. Tumor volume data are transformed to a log scale to equalize variance across time and treatment groups. The log volume data are analyzed with a two-way repeated measures analysis of variance by time and treatment using the MIXED™ procedures in SAS™ software (version 8.2). The correlation model for the repeated measures is spatial power. Test Groups are: • 1: 1% CMC/0.25% Tween® 80/0.05% Antifoam, Monday-Wednesday-Friday ×2, PO/PBS Monday-Thursday ×2, IP • 2: Compound A, 8 mg/kg, Monday-Wednesday-Friday ×2, PO • 3: Compound B (PD-L1), 250 μg/dose, Monday-Thursday ×2, IP • 4: Compound C (PD-1), 250 μg/dose, Monday-Thursday ×2, IP • 5: Compound A, 8 mg/kg, Monday-Wednesday-Friday ×2, PO/Compound B (PD-L1), 250 μg/dose, Monday-Thursday ×2, IP • 6: Compound A, 8 mg/kg, Monday-Wednesday-Friday ×2, PO/Compound C (PD-1), 250 μg/dose, Monday-Thursday ×2, IP
Tumor growth and body weight are monitored over time to evaluate efficacy and signs of toxicity. Bidimensional measurements of tumors are performed twice a week and tumor volumes are calculated based on the following formula: (Tumor Volume)=[(L)×(W2)×(Π/6)] where L is mid-axis length and W is mid-axis width. Tumor volume data are transformed to a log scale to equalize variance across time and treatment groups. The log volume data are analyzed with a two-way repeated measures analysis of variance by time and treatment using the MIXED™ procedures in SAS™ software (version 8.2). The correlation model for the repeated measures is spatial power. Treated groups are compared to the control group at each time point. The MIXED™ procedure is also used separately for each treatment group to calculate adjusted means and standard errors at each time point. Both analyses account for the autocorrelation within each animal and the loss of data that occurs when animals with large tumors are removed from the study early. […] Antitumor activity is expressed as a tumor volume percentage for treatment versus control (% T/C) and is calculated by comparing tumor volume in the treatment group with vehicle treatment group. Percentage T/C and statistical significance value (p value) for the treatment groups is measured essentially as described above and summarized in Table 2. […]

Experiment [1] deals with CT-26 tumors. Description: Flow-cytometry of intra-tumoral immune cell populations in excised CT-26 tumors. It counts as in vivo, mice. The settings on record: tumors excised day 20, 1 h after last dose of Compound A. The procedure:
(§1) For mechanism analysis CT-26 tumors are excised on day 20, 1 h following the last dose of Compound A. A small piece of approximately 30 mg is cut and stored in RNALater for gene expression analysis. The remainder of the tumor is processed for the flow-cytometry analysis.
Tumors are weighed and then homogenized in 5 ml 4° C. complete media (CM; RPMI-1640/10% fetal bovine serum (FBS)) through 100 μm strainers to produce single-cell suspensions. Cells are centrifuged for 5 minutes at 466×g, 4° C.; the pellets are resuspended in fresh CM (0.5-3 ml, depending on pellet volume), and cells are counted using a Vi-Cell XR (Beckman Coulter). An equal number of total cells per tumor (10×10^6) are transferred to 96-well V-bottom microplates (Fisher Scientific). Cells are centrifuged (700×g, 3 min., 4° C.) and resuspended in 100 μl 1 μg/ml Fc block in CM (anti-CD16/32 (clone 2.4G2); Tonbo Biosciences) for 30 minutes on ice. Cells are centrifuged (700×g, 3 minutes, 4° C.) and resuspended in 100 μl of one of several fluochrome-conjugated surface marker antibody cocktails [anti-CD3 (clone 145-2C11), -Ly-6G (clone 1A8), -CD11c (clone HL3), -CD45 (clone 30-F11) (BD Biosciences), anti-CD8 (clone 53-6.7) (Biolegend), -CD11b (clone M1/70), -CD3 (clone 145-2C11), -F4/80 (clone BM8), -CD4 (clone RM4-5), (eBioscience)] containing a fixable viability dye (eBioscience) and incubated for 30 minutes on ice covered from light. Cells are twice washed with 200 μl CM and centrifuged (700×g, 3 min., 4° C.). Following the second wash, cells are fixed, permeabilized, and intracellularly stained for Ki67 (clone SolA15) (eBioscience) using the Foxp3/Transcription Factor Staining Buffer Set (eBioscience), following the manufacturer's instructions with noted modifications. Briefly, cells are fixed in 100 μl/well for 30 min., followed by 100 μl/well permeabilization buffer with or without intracellular stain (depending on the staining panel used) for 30 min. Cells are twice washed with 200 μl 1× permeabilization buffer and centrifuged (700×g, 3 min., 4° C.), followed by resuspension in PBS with 2% FBS. 1×10^6 events, excluding debris, are captured for each sample using a 10-channel LSR II cytometer (BD Biosciences) and analyzed using FlowJo V.10.0.8 software. Data is represented as percent of tumor cells, with noted exceptions where represented as percent of parent population. Post-hoc t-test following ANOVA is used for statistical analysis between vehicle and treatment groups.

Experiment [2] has as its system CT-26 tumors. Description: Gene expression analysis (Taqman) of excised CT-26 tumors. It counts as in vivo, mice. The settings on record: all genes of Table 4; single-agent groups versus vehicle; result in words. The method, then:
as §1
For RNA isolation from the tumor, approximately 30 mg tissue is cut. RNA is extracted by RNeasy Protocol (version January 2002) using RNeasy 96-well Column Plates (Qiagen, Valencia, Calif.; Cat #74182) and QiaVac 96 vacuum manifold at 15 psi vacuum. […] The total RNA concentration is estimated using Nanodrop ND-1000 spectrophotometer by absorbance at 260 nm (Thermo Scietific). […]
For Taqman procedure, 100 μL of cDNA is diluted with 200 μL RNase/DNase-free water in 96-Well Clear Optical Reaction Plate (Applied Biosystems, Cat #4306737) and transferred to 2 mL RNase/DNase-free tubes (Ambion, Cat #AM12475). […] Samples are dispensed with Tecan Automated Pipetting Workstation (Tecan US Inc., Durham, N.C.; Model: Freedom Evo-100 or Evo-150), and plates are read in ABI Prism 9700HT SDS plate reader with following protocol settings: 50° C. for 2 minutes, 95° C. for 10 minutes, and 40 cycles at 95° C. for 15 seconds and 60° C. for 1 minute. […] All calculations are done in Microsoft Excel spreadsheet template, and % inhibition is calculated from control values. […]
Background: In qPCR the cycle at which signal appears reflects the starting amount.

On to `C[C@H](NC(=O)CCC(F)(F)F)C(=O)N[C@@H]1C(=O)N(CCO)c2ncccc2-c2ccccc21` [Compound A, 4,4,4-trifluoro-N-[(1S)-2-[[(7S)-5-(2-hydroxyethyl)-6-oxo-7H-pyrido[2,3-d][3]benzazepin-7-yl]amino]-1-methyl-2-oxo-ethyl]butanamide], for which the “Tumor volume: Geometric Mean” value with CT26 cells (study day 8) came out at 47.96 mm^3. For the same compound, in the experiment with CT26 cells (study day 10), the “Tumor volume: Geometric Mean” value was 88.80 mm^3. The “Tumor volume: Geometric Mean” value in the experiment with CT26 cells (study day 14) amounted to 376.50 mm^3. Also, the “Tumor volume: Geometric Mean” value with CT26 cells (study day 17) is 751.13 mm^3. The “Tumor volume: Geometric Mean” value in the experiment with CT26 cells (study day 20) was found to be 1227.40 mm^3. For the same compound, in the experiment on CT-26 tumors [1], the “CD4+/Ki67+ (% of CD4+) Mean % ± SEM” value was found to be 7.6 ± 0.5%, the “CD8+/Ki67+ (% of CD8+) Mean % ± SEM” value was found to be 23.1 ± 2.0%, the “CD11b + F4/80+ (% of Tumor) Mean % ± SEM” value is listed as 0.89 ± 0.15% and the “CD11b + Ly-6G + F4/80− (% of Tumor) Mean % ± SEM” value is listed as 1.12 ± 0.08%. In the experiment on CT-26 tumors [1], the “CD11b+ (% of Tumor) Mean % ± SEM” value is recorded as 2.9 ± 0.2% and the “CD11c+ (% of Tumor) Mean % ± SEM” value was determined as 0.42 ± 0.06%. In the experiment on CT-26 tumors [2], the “change in the expression of genes examined” value was “No significant change”.
